Columns and labels:
[1] = system: Echinochloa crus-galli (ECHCG); experiment: Test 1A glasshouse assay, pre-emergence herbicidal activity; format: in vivo; conditions: 312 h, 13 days after application, read-out: Pre-Emergence Herbicidal Activity (% Phytotoxicity) ECHCG
Method: (§1) Seeds of a variety of test species are sown in standard soil (usually sandy soil) in pots. After cultivation for one day (pre-emergence) or after 8 days cultivation (post-emergence) under controlled conditions in a glasshouse (at 24/16° C., day/night; 14 hours light; 65% humidity), the plants are sprayed with an aqueous spray solution derived from the formulation of the technical active ingredient (compound) in acetone/water (50:50) solution containing 0.5% Tween 20 (polyoxyethylene sorbitan monolaurate, CAS RN 9005-64-5). The test plants are then grown under controlled conditions in a glasshouse (at 24/16° C., day/night; 14 hours light; 65% humidity) and watered twice daily. 13 days after application of the test compounds, for pre- and post-emergence, the test is evaluated visually for percentage phytotoxicity to each plant (where 100%=total damage to plant; 0%=no damage to plant).
(§2) Alopecurus myosuroides (ALOMY), Setaria faberi (SETFA), Echinochloa crus-galli (ECHCG), Amaranthus retroflexus (AMARE), and Abutilon theophasti Medik. (ABUTH, common English name “velvetleaf”). Of these, Alopecurus myosuroides (ALOMY), Setaria faberi (SETFA), and Echinochloa crus-galli (ECHCG) are grassy monocotyledonous weeds. […]

[2] = system: Alopecurus myosuroides (ALOMY); experiment: Test 1A glasshouse assay, post-emergence herbicidal activity; format: in vivo; conditions: 312 h, 13 days after application, read-out: Post-Emergence Herbicidal Activity (% Phytotoxicity) ALOMY
Method: as §1, §2

[3] = system: Echinochloa crus-galli (ECHCG); experiment: as above; format: in vivo; conditions: 312 h, 13 days after application, read-out: Post-Emergence Herbicidal Activity (% Phytotoxicity) ECHCG
Method: as §1, §2

[4] = system: Abutilon theophasti Medik. (ABUTH); experiment: as above; format: in vivo; conditions: 312 h, 13 days after application, read-out: Post-Emergence Herbicidal Activity (% Phytotoxicity) ABUTH
Method: as §1
(§3) Alopecurus myosuroides (ALOMY), Setaria faberi (SETFA), Echinochloa crus-galli (ECHCG), Amaranthus retroflexus (AMARE), and Abutilon theophasti Medik. (ABUTH, common English name “velvetleaf”). Of these, Alopecurus myosuroides (ALOMY), Setaria faberi (SETFA), and Echinochloa crus-galli (ECHCG) are grassy monocotyledonous weeds.

[5] = system: Amaranthus retroflexus (AMARE); experiment: as above; format: in vivo; conditions: 312 h, 13 days after application, read-out: Post-Emergence Herbicidal Activity (% Phytotoxicity) AMARE
Method: as §1, §3

Setaria faberi (SETFA) [6] = experiment: as above; format: in vivo; conditions: 312 h, 13 days after application, read-out: Post-Emergence Herbicidal Activity (% Phytotoxicity) SET FA
Method: as §1, §3

[7] = system: Abutilon theophasti Medik. (ABUTH); experiment: Test 1A glasshouse assay, pre-emergence herbicidal activity; format: in vivo; conditions: 312 h, 250 g/ha, 13 days after application, read-out: Pre-Emergence Herbicidal Activity (% Phytotoxicity) ABUTH
Method: as §1, §3

[8] = system: Amaranthus retroflexus (AMARE); experiment: as above; format: in vivo; conditions: 312 h, 250 g/ha, 13 days after application, read-out: Pre-Emergence Herbicidal Activity (% Phytotoxicity) AMARE
Method: as §1, §3

Setaria faberi (SETFA) [9] = experiment: as above; format: in vivo; conditions: 312 h, 250 g/ha, 13 days after application, read-out: Pre-Emergence Herbicidal Activity (% Phytotoxicity) SET FA
Method: as §1, §3

POAAN = experiment: Biological Example 3 (Test 2 glasshouse assay), post-emergence herbicidal activity; format: in vivo, Poa annua
Method: Seeds of a variety of monocotyledonous and dicotyledonous test plants are sown in standard soil in pots. The plants are cultivated for one day (for pre-emergence) or for about 12 days (range=10-13 days) (for post-emergence) under controlled conditions in a glasshouse (warm climate species at 24/18° C., cool climate species at 20/16° C., both at day/night; 16 hours light; 65% humidity). An “instant formulation”, known as the “IF50”, containing 50 g/litre (i.e. 5% w/v) of the “technical” (i.e. unformulated) active ingredient is prepared by dissolving the active ingredient in a mixture of organic solvents and emulsifier, details of which are provided in the Table below. This IF50 is then mixed with a small, variable amount of acetone to aid dissolution, before addition of a 0.2% v/v aqueous solution of the adjuvant X-77 (which is a mixture of alkyl aryl polyoxyethylene glycols and free fatty acids in isopropanol, CAS Registry number 11097-66-8), as the aqueous diluent, to form an aqueous spray solution which contains a predetermined concentration of the active ingredient (which varies depending on the application rate of the active ingredient to the plants) and 0.2% v/v of the adjuvant X-77. This aqueous spray solution is then sprayed onto the plants, after one day's cultivation (for pre-emergence) or after about 12 days' cultivation (for post-emergence). The test plants are then grown on, in a glasshouse (greenhouse) under controlled conditions (at either 24/18° C. or 20/16° C. (day/night) as mentioned above; 16 hours light; 65% humidity) and are watered twice daily. Either 15 days after application of the test compound (15 DAA) (for post-emergence), or 20 days after application of the test compound (20 DAA) (for pre-emergence), the test plants are evaluated visually, and an assessed percentage phytotoxicity score is given for each compound application on each plant species (where 100%=total damage to plant; 0%=no damage to plant).

[10] = system: Alopecurus myosuroides (ALOMY); experiment: Test 1A glasshouse assay, pre-emergence herbicidal activity; format: in vivo; conditions: 312 h, 13 days after application, read-out: Pre-Emergence Herbicidal Activity (% Phytotoxicity) ALOMY
Method: as §1, §3
Lolium perenne (LOLPE), Triticum aestivum (TRZAW, winter wheat), Alopecurus myosuroides (ALOMY), Echinochloa crus-galli (ECHCG), and Avena fatua (AVEFA). All these are grassy monocotyledonous weeds and/or (for wheat) grassy crops.

Structure (SMILES) | inhibition at 250 g/ha [1] [%] | inhibition at 250 g/ha [2] [%] | inhibition at 250 g/ha [3] [%] | inhibition at 250 g/ha [4] [%] | inhibition at 250 g/ha [5] [%] | inhibition at 250 g/ha (Setaria faberi (SETFA) [6]) [%] | inhibition at 250 g/ha [7] [%] | inhibition at 250 g/ha [8] [%] | inhibition at 250 g/ha (Setaria faberi (SETFA) [9]) [%] | Post-Emergence Herbicidal Activity (Percentage Phytotoxicity) POAAN (POAAN; 30 g/ha (rate by row order)) [%] | Post-Emergence Herbicidal Activity (Percentage Phytotoxicity) POAAN (POAAN; 125 g/ha (rate by row order)) [%] | inhibition at 250 g/ha [10] [%] | inhibition at 30 g/ha [2] [%] | inhibition at 30 g/ha [3] [%] | inhibition at 30 g/ha [4] [%] | inhibition at 30 g/ha [5] [%] | inhibition at 30 g/ha (Setaria faberi (SETFA) [6]) [%] | Post-Emergence Herbicidal Activity (Percentage Phytotoxicity) POAAN (POAAN; 8 g/ha (rate by row order)) [%] | further results
CC#Cc1cc(C)c(C2C(=O)N(C)N(C)C2=O)c(C)c1 [Compound A1] | 30 | 0 | 40 | 10 | 0 | 40 | 0 | 0 | 30 | 50 | 80 | 0 |  |  |  |  |  |  | 
CC#Cc1cc(C)c(C2C(=O)N3CCCCCN3C2=O)c(C)c1 [Compound A23, 2-(2,6-dimethyl-4-prop-1-ynyl-phenyl)-6,7,8,9-tetrahydro-5H-pyrazolo[1,2-a]diazepine-1,3-dione] | 90 | 80 | 80 | 60 | 30 | 80 | 10 | 80 | 50 | 10 | 70 | 90 |  |  |  |  |  |  | 
CC#Cc1cc(C)c(C2C(=O)C(Cc3ccccn3)N(C)C2=O)c(C)c1 (stereo not shown) [Compound A50, 3-(2,6-dimethyl-4-prop-1-ynyl-phenyl)-1-methyl-5-(2-pyridylmethyl)pyrrolidine-2,4-dione] | 90 | 100 | 100 |  |  |  |  |  |  |  |  | 90 |  |  |  |  |  |  | inhibition at 62.5 g/ha ([1]; 62.5 g/ha): 70%; inhibition at 15.625 g/ha ([2]; 15.625 g/ha): 30%; inhibition at 62.5 g/ha ([2]; 62.5 g/ha): 90%; inhibition at 15.625 g/ha ([3]; 15.625 g/ha): 80%; inhibition at 62.5 g/ha ([3]; 62.5 g/ha): 100%; inhibition at 62.5 g/ha ([10]; 62.5 g/ha): 70%
CC#Cc1cc(C)c(-c2c(OC(=O)C(C)(C)C)n(C)n(C)c2=O)c(C)c1 [Compound P1] | 100 | 90 | 100 | 70 | 20 | 90 | 10 | 10 | 100 | 0 | 70 | 100 | 80 | 80 | 30 | 0 | 70 | 0 | 
CC#Cc1cc(C)c(-c2c(OC(=O)C(C)(C)C)n3n(c2=O)CCOCC3)c(C)c1 [Compound P4] | 100 | 90 | 100 | 70 | 10 | 100 | 80 | 100 | 100 | 70 | 90 | 100 | 70 | 100 | 70 | 0 | 70 | 50 | 

From patent publication US20160219881A1, “HERBICIDALLY ACTIVE 2-HALOGEN-4-ALKYNYL-PHENYL-PYRAZOLIDINE-DIONE OR PYRROLIDINE-DIONE DERIVATIVES” (SYNGENTA LIMITED, priority 2013, published 2016)
